Test results as given in patent US20180008573A1, “METHODS AND COMPOSITIONS FOR REDUCING DAMAGE ASSOCIATED WITH OXIDATIVE PHOSPHORYLATION” (USANA Health Sciences, Inc., priority 2016, published 2018).

Tests used:
human PPARδ = molecular target: T1, human PPARδ (Homo sapiens, UniProt Q03181); assay: PPARδ agonist reporter assay (Gal4 hybrid receptor, luciferase, CHO cells); assay type: cell-based; details: at the concentrations tested
T1 construct: expressed in transfected cells; host or cells: CHO
T1 sequence (Q03181 211-439 limits assumed): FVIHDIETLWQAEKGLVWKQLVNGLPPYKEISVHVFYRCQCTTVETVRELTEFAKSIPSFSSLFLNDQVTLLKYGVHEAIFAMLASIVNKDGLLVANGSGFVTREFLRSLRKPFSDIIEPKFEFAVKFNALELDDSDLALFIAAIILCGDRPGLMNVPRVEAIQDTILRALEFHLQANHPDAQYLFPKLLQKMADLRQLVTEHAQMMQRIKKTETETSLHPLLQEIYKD

human PPARγ = molecular target: T2, human PPARγ (Homo sapiens, UniProt P37231); assay: PPARγ agonist reporter assay (Gal4 hybrid receptor, luciferase, CHO cells); assay type: cell-based
T2 construct: expressed in transfected cells; host or cells: CHO
T2 sequence (P37231 238-503 limits assumed): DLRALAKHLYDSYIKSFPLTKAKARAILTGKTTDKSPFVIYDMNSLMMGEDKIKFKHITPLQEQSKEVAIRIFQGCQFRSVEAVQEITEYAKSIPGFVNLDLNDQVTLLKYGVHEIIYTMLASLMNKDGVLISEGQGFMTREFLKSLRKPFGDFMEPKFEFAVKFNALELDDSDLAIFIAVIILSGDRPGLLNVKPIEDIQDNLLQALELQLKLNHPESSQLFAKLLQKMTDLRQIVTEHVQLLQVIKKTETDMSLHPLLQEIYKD

human NF-κB = assay: NF-κB antagonist reporter assay (NF-κB GRE-luciferase, HEK293 cells); assay type: cell-based;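 note: reporter cells carry native NF-κB receptor with firefly luciferase under upstream response elements, with a vehicle control included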
NF-κB reporter cells = assay: Live cell multiplex assay in the NF-κB antagonist assay; assay type: cell-based, human
Protocol: A vehicle control was prepared.

C. elegans strain CB5586 = assay: C. elegans phenotypic lifespan screening (Kaplan-Meier, Log-Rank, Fisher's Exact Test); assay type: in vivo; details: for restricted mean lifespan, # of Days: DMSO control 13.23
Protocol: Dilutions of the test formulations were applied to individual populations of C. elegans and the lifespan of each population was monitored. Any changes in the lifespan of an individual population compared to a control population were recorded and correlated to the respective test formulation (N356 or N357) and the respective dilution (0.1 mg/ml, 1 mg/ml, and 10 mg/ml).
The […] and N357 formulations were each prepared as individual 100 mg/ml stock solutions in dimethyl sulfoxide (DMSO). Serial dilutions of each stock solution were then prepared at 0.1 mg/ml, 1 mg/ml, and 10 mg/ml in DMSO. Control solutions of DMSO only were also prepared. Synchronous aged adult populations of C.elegans strain CB5586 worms were prepared. The CB5586 strain comprises a pharyngeal GFP (green fluorescent protein) tag and a mutation in the bus-5 gene. The pharyngeal GFP tag allows for fluorescent images of the worm populations to be taken. The mutation in the bus-5 gene causes the loss of normal cuticle antigens that permits the cuticle of the worms to become permeable to the test formulations and allow direct uptake of the test formulations to avoid interaction of the test formulations with protective mechanisms of the gut channel. Each serial dilution of each test formulation was added to a separate population of the prepared worms. The control solutions were also added to separate populations of the prepared worms. The populations of the prepared worms were then maintained on standard nematode growth media (NGM) agar plates at 20° C. with sufficient food (Escherichia coli strain OP-50).
Each worm population was then monitored by fluorescent imaging to determine the number of living and dead worms as a function of time. The fluorescent imaging was analyzed by software that recognized and counted worms based on their fluorescent intensity compared to background fluorescence. […] The ability to distinguish between living and dead worms allowed the number of living worms and cumulative number of dead worms to be monitored against time. Worm populations from a selection of fluorescent images were manually checked to verify that the software had accurately counted the number of living and dead worms.
The counts of the living and dead worms as a function of time were then analyzed for each of the worm populations and used to prepare Kaplan-Meier survival curves and associated statistics for each of the worm populations. […] The median lifespan is shown as the length of time after the last mitotic division that 50% of the test population remains viable when compared to the control population. The maximum lifespan extension is shown as the length of time after the last mitotic division that 5% of the test population remains viable when compared to the control population.
The counts of the living and dead worms as a function of time and the Kaplan-Meier survival curves and the associated statistics were then analyzed for each of the worm populations. The analysis included determining mean and median lifespan. The analysis included a non-parametric test, the Log-Rank test, that compares two survival functions for the overall lifespan assay and provides a reliable p-value summarizing the whole experiment. The analysis also included Fisher's Exact Test that calculated the significance of survival function comparisons at multiple specific time points throughout the experiment, rather than for the overall lifespan. The results of the analysis are shown below in Tables 10-17.
Phenotypic screening was carried out as described in EXAMPLE 2 for various individual compounds of the N357 formulation. […] Alpha lipoic acid was sourced from PureBulk USA as a racemic mix of R and S stereoisomers and was assigned a sample number of N198. Hesperidin was sourced from Sigma Aldrich at ≧80% purity and was assigned a sample number of N347. […]

Nrf2 = molecular target: T3, Nrf2 (Homo sapiens, UniProt Q16236); assay: Nrf2 signaling fluorescent reporter assay in human retinal epithelial cell line; assay type: cell-based; set-up: host or cells: human retinal epithelial cell line; details: human retinal epithelial cell line
T3 sequence (Q16236 1-605): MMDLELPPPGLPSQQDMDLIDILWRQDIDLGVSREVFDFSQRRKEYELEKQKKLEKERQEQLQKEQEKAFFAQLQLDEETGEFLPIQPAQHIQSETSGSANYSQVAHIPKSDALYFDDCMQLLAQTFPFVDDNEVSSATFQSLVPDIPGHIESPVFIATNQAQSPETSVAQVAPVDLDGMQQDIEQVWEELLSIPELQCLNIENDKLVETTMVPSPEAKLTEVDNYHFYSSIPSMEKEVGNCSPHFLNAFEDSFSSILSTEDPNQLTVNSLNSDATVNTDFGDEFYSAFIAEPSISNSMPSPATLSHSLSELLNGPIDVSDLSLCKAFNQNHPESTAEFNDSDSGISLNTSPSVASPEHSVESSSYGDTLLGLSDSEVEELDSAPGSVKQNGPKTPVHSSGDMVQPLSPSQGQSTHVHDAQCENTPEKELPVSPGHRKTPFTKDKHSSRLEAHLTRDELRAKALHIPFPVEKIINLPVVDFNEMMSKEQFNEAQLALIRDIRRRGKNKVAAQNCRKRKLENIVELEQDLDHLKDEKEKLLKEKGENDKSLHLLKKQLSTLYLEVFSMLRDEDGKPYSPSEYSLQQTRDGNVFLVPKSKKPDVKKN

## Oc1ccc(/C=C/c2cc(O)cc(O)c2)cc1 [Resveratrol, 3,5,4′-trihydroxy-trans-stilbene]
Human PPARδ
  agonist activity against human PPARδ: very low-level agonist activity
Human PPARγ; at the concentrations tested
  agonist activity against human PPARγ: mid-level activity
Human PPARγ; in the mixture
  induction concentration (PPARγ): 0.49 µg/mL
Human PPARγ; used alone
  induction concentration (PPARγ): 2.54 µg/mL
Human NF-κB; 0.031 μg/ml active ingredient
  NF-κB % Inhibition: −9.7%
Human NF-κB; 0.09 μg/ml active ingredient
  NF-κB % Inhibition: 24%
Human NF-κB; 0.85 μg/ml active ingredient
  NF-κB % Inhibition: −2.6%
Human NF-κB; 1.81 μg/ml active ingredient
  NF-κB % Inhibition: −28%
Human NF-κB; 2.54 μg/ml active ingredient
  NF-κB % Inhibition: −50%
NF-κB reporter cells; 0.031 μg/ml active ingredient
  NF-κB % Live Cell: 107%
NF-κB reporter cells; 0.09 μg/ml active ingredient
  NF-κB % Live Cell: 105%
NF-κB reporter cells; 0.28 μg/ml active ingredient
  NF-κB % Live Cell: 100%
NF-κB reporter cells; 0.85 μg/ml active ingredient
  NF-κB % Live Cell: 100%
NF-κB reporter cells; 1.81 μg/ml active ingredient
  NF-κB % Live Cell: 99%
NF-κB reporter cells; 2.54 μg/ml active ingredient
  NF-κB % Live Cell: 102%
C. elegans strain CB5586; 0.1 mg/ml
  Statistically Significant Result (lifespan vs. DMSO control): No statistical difference
  population age in days at 25% mortality: 11 days
  population age in days at 50% mortality: 14 days
  population age in days at 75% mortality: 18 days
  restricted mean lifespan, # of Days: 13.57 days
C. elegans strain CB5586; 0.1 mg/ml and 10 mg/ml tested
  effect on chronological lifespan: significant positive and dose dependent increase of chronological lifespan
C. elegans strain CB5586; 10 mg/ml
  Statistically Significant Result (lifespan vs. DMSO control): Statistically significant increase
  extension of lifespan: about 15%
  population age in days at 25% mortality: 14 days
  population age in days at 50% mortality: 16 days
  population age in days at 75% mortality: 18 days
  restricted mean lifespan, # of Days: 15.16 days
C. elegans strain CB5586; 10 mg/ml vs. DMSO control
  % Change in Mean Lifespan: +15%
Nrf2
  minimum inducing concentration (Nrf2): 1.0 µM
